Data as given in US8580268B2, “CpG oligonucleotide analogs containing hydrophobic T analogs with enhanced immunostimulatory activity” (Coley Pharmaceutical GmbH, priority 2006, dated 2013).
“Also recorded” adds a separate entry of the source. Strand notation (5' to 3'): a small letter for the sugar, then the base; units joined by * are phosphorothioate-linked, units joined directly phosphodiester-linked; [ ] holds rarer units or linkages, { } end groups; capitals alone tell only the bases. [5IU] = 5-iodo-2'-deoxyuridine; [HEG] = Spacer 18, hexaethylene glycol phosphate; [TEG] = Spacer 9, triethylene glycol phosphate; [2doub] = Doubler2 branching unit (Chemgenes); [6NB] = 6-nitro-benzimidazol nucleoside; [5BrU] = 5-bromo-2'-deoxyuridine (BU); [5EtU] = 5-ethyl-2'-deoxyuridine (EU); d = 2'-deoxy (DNA); m = 2'-O-methyl

Tests used:
[1] = test system: human PBMC; experiment: IL-6 induction in human PBMC (luminex); type: cell-based; conditions: human PBMC from three donors, 24 h
Procedure: Peripheral blood buffy coat preparations from healthy human donors were obtained from the Blood Bank of the University of Düsseldorf (Germany) and PBMC were purified by centrifugation over Ficoll-Hypaque (Sigma). Cells were cultured in a humidified incubator at 37° C. in RPMI 1640 medium supplemented with 5% (v/v) heat inactivated human AB serum (BioWhittaker) or 10% (v/v) heat inactivated FCS, 2 mM L-glutamine, 100 U/ml penicillin and 100 μg/ml streptomycin (all from Sigma).
PBMC were resuspended at a concentration of 5×10^6 cells/ml and added to 96 well round-bottomed plates […]. PBMC were incubated with ODN and culture supernatants (SN) were collected after the indicated time points. If not used immediately, SN were stored at −20° C. until required.
Amounts of cytokines in the SN were assessed using an in-house ELISA for IFN-α developed using commercially available antibody (PBL, New Brunswick, N.J., USA) or on the Luminex multiplex system (Luminex Corporation, 12212 Technology Boulevard, Austin, Tex. 78727-6115).
Next the modified P-class ODN were tested for the ability to induce IL-6 in human PBMC. PBMC from three donors were incubated with ODN at concentrations as indicated for 24 h, followed by luminex 25-plex analysis of the supernatants for IL-6. The activity of modified P-class ODN (SEQ ID NO:58, 60-62, FIG. 28a) (SEQ ID NO:64 and 67, FIG. 28b) was compared to that of an unmodified B-class ODN (SEQ ID NO:55), and unmodified C-class ODN (SEQ ID NO:54), a negative control ODN (SEQ ID NO:53), and an unmodified P-class ODN (SEQ ID NO:56).

[2] = test system: BALB/c mice; experiment: In vivo murine IFN-alpha induction after SC injection (ELISA); design: species or system mouse; conditions: bled at 3 hr post injection
Procedure: Female BALB/c mice (6-8 weeks of age) were purchased from Charles River Canada (Quebec, Canada) and housed in micro-isolators in the Animal Care Facility at Coley Pharmaceutical Group Canada. All studies were conducted in accordance with the Animal Care Committee of Coley Canada under the guidance of the Canadian Council on Animal Care. All animals were naïve to CpG ODNs.
In order to determine the effect of the modified P-class ODN in vivo, BALB/c mice (5 per group) were injected SC with differing doses of ODN. Animals were bled at 3 hr post injection and plasma tested for IFN-alpha by ELISA. The activity of modified P-class ODN (SEQ ID NO:58, 60-62, 64, and 67) was compared to that of a B-class negative control (SEQ ID NO:55) and a negative control (SEQ ID NO:26).

[3] = test system: SaI/N tumor cells; experiment: Mouse SA1N tumor model; type: in vivo; conditions: A/J mice
Procedure: SA1N tumor model: Female A/J mice (10 per group) were injected SC with 5×10^5 SaI/N tumor cells on day 0. Mice were treated with 100 μg ODN or PBS alone given SC once weekly starting on day 8 post tumor induction. Animals were monitored for survival and tumor volume. Tumor size (the length and the width) was measured using a digital vernier caliper. Tumor volume was calculated by using the formula: Tumor volume=(0.4) (ab2), where a=large diameter and b=smaller diameter.
Next the modified P-class ODN were evaluated for their ability to reduce tumor volume mouse SA1N tumor model. Female A/J mice (10 per group) were injected SC with 5×10^5 SaI/N tumor cells on day 0. Mice were treated with 35 μg (FIG. 31a) or 100 μg (FIG. 31b) P-class ODN with a lipophilic substituted nucleotide analog (SEQ ID NO:60, 64, and 67), an unmodified C-class ODN, an unmodified B-class ODN (SEQ ID NO:55), or PBS alone. ODN were given SC once weekly starting on day 8 post tumor induction. Animals were monitored for survival and tumor volume.

[4] = biological target: T1, human TLR9 (Homo sapiens, UniProt Q9NR96); experiment: TLR9 luciferase assay (NF-κB reporter) in hTLR9-LUC-293 cells; type: cell-based; conditions: 16 h, stated in words relative to the comparator ODN
T1 construct: expressed in transfected cells
T1 sequence (Q9NR96 26-1032): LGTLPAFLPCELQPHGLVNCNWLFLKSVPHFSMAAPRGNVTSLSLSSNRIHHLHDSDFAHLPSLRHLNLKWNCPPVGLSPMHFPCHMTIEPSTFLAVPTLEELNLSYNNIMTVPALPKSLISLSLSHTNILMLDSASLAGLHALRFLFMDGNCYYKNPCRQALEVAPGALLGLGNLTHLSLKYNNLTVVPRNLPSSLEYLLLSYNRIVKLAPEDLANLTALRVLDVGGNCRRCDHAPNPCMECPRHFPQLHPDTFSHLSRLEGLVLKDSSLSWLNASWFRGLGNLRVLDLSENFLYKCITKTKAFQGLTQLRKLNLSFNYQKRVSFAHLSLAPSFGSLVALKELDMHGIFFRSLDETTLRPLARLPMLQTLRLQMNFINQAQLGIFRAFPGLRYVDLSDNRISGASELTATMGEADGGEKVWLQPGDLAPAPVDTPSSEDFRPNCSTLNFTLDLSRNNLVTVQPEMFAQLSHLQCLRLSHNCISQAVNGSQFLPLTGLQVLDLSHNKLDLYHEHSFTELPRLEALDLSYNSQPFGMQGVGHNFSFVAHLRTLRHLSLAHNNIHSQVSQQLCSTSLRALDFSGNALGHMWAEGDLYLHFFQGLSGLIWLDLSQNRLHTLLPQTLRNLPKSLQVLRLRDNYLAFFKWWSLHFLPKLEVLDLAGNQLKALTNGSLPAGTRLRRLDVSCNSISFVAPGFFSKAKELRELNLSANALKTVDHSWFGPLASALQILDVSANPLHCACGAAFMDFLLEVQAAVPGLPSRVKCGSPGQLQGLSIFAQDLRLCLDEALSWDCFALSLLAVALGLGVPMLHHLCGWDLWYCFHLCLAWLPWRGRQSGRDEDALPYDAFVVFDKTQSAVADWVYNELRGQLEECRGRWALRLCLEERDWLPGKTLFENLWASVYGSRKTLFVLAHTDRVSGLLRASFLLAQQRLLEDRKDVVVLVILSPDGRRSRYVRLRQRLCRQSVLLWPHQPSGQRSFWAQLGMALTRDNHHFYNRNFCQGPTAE
Procedure: HEK293 cells were transfected by electroporation with vectors expressing the respective human TLR and a 6xNF-κB-luciferase reporter plasmid. Stable transfectants (3×10^4 cells/well) were incubated indicated amounts of ODN for 16 h at 37° C. in a humidified incubator. Each data point was done in triplicate. Cells were lysed and assayed for luciferase gene activity (using the BriteLite kit from Perkin-Elmer, Zaventem, Belgium). Stimulation indices were calculated in reference to reporter gene activity of medium without addition of ODN.

[5] = 35 μg ODN SC once weekly from day 8
[6] = 100 μg ODN SC once weekly from day 8

Substance | TLR9 stimulation (NF-κB luciferase activity, relative stimulation index) [4] | also measured
JU*C-G*A*C*G*T*C*G*A*T*C*G*G*C*G*C*G*C*G*C*C*G (DNA d[5IU]*dCdG*dA*dC*dG*dT*dC*dG*dA*dT*dC*dG*dG*dC*dG*dC*dG*dC*dG*dC*dC*dG) [SEQ ID NO:58, JU-modified P-class] | – | IL-6 induction [1]: slightly higher activation of IL-6; plasma IFN-alpha induction [2]: slightly higher IFN-alpha induction
EU*C-G*A*C*G*T*C*G*A*T*C*G*G*C*G*C*G*C*G*C*C*G (DNA d[5EtU]*dCdG*dA*dC*dG*dT*dC*dG*dA*dT*dC*dG*dG*dC*dG*dC*dG*dC*dG*dC*dC*dG) [SEQ ID NO:64, EU-modified P-class] | higher degree of TLR9 stimulation than the unmodified P class ODN | reduction in tumor volume [3, 5]: greatest reduction in tumor volume; reduction in tumor volume [3, 6]: effective in reducing tumor volume
T*G*CU*C-G*T*T*T*T*T*T*T*T*T*T*T*T*T*T*T (DNA TGNCGTTTTTTTTTTTTTTT; CU modification, chemistry not fully specified) [SEQ ID NO:41] | greater stimulation of TLR9 activity over control | –
T*C-G-A-C-G-JU-C-G-T-G-G*G*G*G (DNA dT*dCdGdAdCdGd[5IU]dCdGdTdGdG*dG*dG*dG) [SEQ ID NO:35, JU-modified A class] | increased stimulation of TLR9 above unmodified A and C class | –
T*G*JU*C-mG*T*T*T*T*T*T*T*T*T*T*T*T*T*T*T (DNA dT*dG*d[5IU]*dCmG*dT*dT*dT*dT*dT*dT*dT*dT*dT*dT*dT*dT*dT*dT*dT) [SEQ ID NO:112, 2′-O-methyl-modified B-class] | slightly more active | –
(T*G*JU*C-G*T*T*L*)2doub-3mG (DNA TGNCGTTNNN; JU, 3'3'-branched doubler, chemistry not fully specified) [SEQ ID NO:96] | as active or more active than the unmodified SEQ ID NO:1 | –
T*C*G*JU*C-G*JU*T*T*T*A*C*G*G*C*G*C*C*G*T*G*C*C*G (DNA dT*dC*dG*d[5IU]*dCdG*d[5IU]*dT*dT*dT*dA*dC*dG*dG*dC*dG*dC*dC*dG*dT*dG*dC*dC*dG) [SEQ ID NO:45] | increased stimulation of TLR9 above unmodified A and C class | –
T*G*EU*C-G*T*T*T*T*T*T*T*T*T*T*T*T*T*T*T (DNA TGNCGTTTTTTTTTTTTTTT; EU modification, chemistry not fully specified) [SEQ ID NO:42] | greater stimulation of TLR9 activity over control; also recorded: significant increase in TLR9 activation | –
T*G*U*C-G*T*T*T*T*T*T*T*T*T*T*T*T*T*T*T (DNA dT*dG*dU*dCdG*dT*dT*dT*dT*dT*dT*dT*dT*dT*dT*dT*dT*dT*dT*dT) [SEQ ID NO:16] | dramatically decreased activity | –
(JU*C*G*T*T*C*G*L*)2doub-teg (DNA d[5IU]*dC*dG*dT*dT*dC*dG*[HEG]*[2doub][TEG]; some compounds branched: two arms joined via doubler and TEG) [SEQ ID NO:102, 3′3′-branched] | as active or more active than the unmodified SEQ ID NO:1; also recorded: more active than SEQ ID NO:96 AND 97 | –
G*JU*C-G*JU*T-hex [SEQ ID NO:126] | greatly enhanced the activity | –
T*mG*JU*C-mG*T*T*T*T*T*T*T*T*T*T*T*T*T*T*T (DNA dT*mG*d[5IU]*dCmG*dT*dT*dT*dT*dT*dT*dT*dT*dT*dT*dT*dT*dT*dT*dT) [SEQ ID NO:113, 2′-O-methyl-modified B-class] | slightly more active | –
T*G*BU*C-G*T*T*T*T*T*T*T*T*T*T*T*T*T*T*T (DNA dT*dG*d[5BrU]*dCdG*dT*dT*dT*dT*dT*dT*dT*dT*dT*dT*dT*dT*dT*dT*dT) [SEQ ID NO:10] | greater stimulation of TLR9 activity over control | –
T*G*6NB*C-G*T*T*T*T*T*T*T*T*T*T*T*T*T*T*T (DNA TGNCGTTTTTTTTTTTTTTT; DNA at 1, 2, 4, 5, 6, 7, 8, 9, 10, 11, 12, 13, 14, 15, 16, 17, 18, 19, 20, [6NB] at 3, linkages s3 o1 s15 (s phosphorothioate, o phosphodiester), other sugars not given here; further chemistry not fully specified) [SEQ ID NO:178, B-class with 6-nitro-benzimidazol (6NB)] | comparable with the unmodified parent sequence | –
T*G*EU*C-G*EU*T*T*T*T*T*T*T*T*T*T*T*T*T*T (DNA TGNCGNTTTTTTTTTTTTTT; EU modifications, chemistry not fully specified) [SEQ ID NO:30] | significant increase in TLR9 activation | –
JU*C*G*T*C*G*A*C*G*A*T*C*G*G*C*G*G*C*C*G*C*C*G*T (DNA d[5IU]*dC*dG*dT*dC*dG*dA*dC*dG*dA*dT*dC*dG*dG*dC*dG*dG*dC*dC*dG*dC*dC*dG*dT) [SEQ ID NO:67, JU-modified fully phosphorothioate P-class] | higher degree of TLR9 stimulation than the unmodified P class ODN | reduction in tumor volume [3, 5]: greatest reduction in tumor volume; reduction in tumor volume [3, 6]: effective in reducing tumor volume; IL-6 induction [1]: slightly higher activation of IL-6
